Patent US6426222B1, “Method for inducing osteoblast differentiation of human extramedullary adipose tissue cells” (Bio Holdings International Limited, priority 1997, dated 2002)

Columns and labels:
[1] = molecular target: intestine type alkaline phosphatase (Homo sapiens, UniProt P09923); settings: read-out: levamisole concentration for 50% inhibition of activity, intestine type alkaline phosphatase; cited from earlier work
[2] = molecular target: placenta type alkaline phosphatase (Homo sapiens, UniProt P05187); settings: read-out: levamisole concentration for 50% inhibition of activity, placenta type alkaline phosphatase; cited from earlier work
Chain of placenta type alkaline phosphatase (P05187 23-506 limits assumed): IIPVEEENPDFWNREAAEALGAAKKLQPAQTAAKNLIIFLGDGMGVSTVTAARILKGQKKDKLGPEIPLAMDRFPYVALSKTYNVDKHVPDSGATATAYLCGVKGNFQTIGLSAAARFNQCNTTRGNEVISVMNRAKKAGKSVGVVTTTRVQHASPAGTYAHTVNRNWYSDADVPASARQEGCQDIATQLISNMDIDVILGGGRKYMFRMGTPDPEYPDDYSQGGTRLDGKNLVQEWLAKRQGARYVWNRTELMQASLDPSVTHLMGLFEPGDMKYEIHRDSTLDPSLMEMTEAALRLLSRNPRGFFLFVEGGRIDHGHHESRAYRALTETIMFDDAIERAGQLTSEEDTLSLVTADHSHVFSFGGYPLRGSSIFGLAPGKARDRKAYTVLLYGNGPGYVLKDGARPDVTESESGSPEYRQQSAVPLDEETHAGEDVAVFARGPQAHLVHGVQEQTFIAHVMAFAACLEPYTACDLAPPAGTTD

[3] = system: human extramedullary adipose tissue cells; assay: Alkaline phosphatase activity of treated cultures (para-nitrophenol phosphate substrate); assay type: cell-based; settings: dexamethasone 10^-7 M
Method: Adipose tissue biopsies were taken during plastic surgery of the abdomen on healthy patients, of ages of from 25 to 50.
The tissues taken were sliced thinly into small fragments and digested for 90 minutes with collagenase (2 mg/ml) in a Krebs Ringer buffer at 37° C. Filtering was performed on a screen having a pore size of 100 μm, the filtrate was recovered, and centrifuged at 1000 revolutions per minute (rpm) for 5 min. The supernatant was removed and the pellet was washed several times in Krebs Ringer buffer. The washing and centrifuging steps were repeated several times and on each occasion the supernatant containing mature adipocytes was removed. The resulting cells were suspended in DME/F12 (Sigma Chemical Co., St. Louis, Mo. USA; reference D-6905) culture medium containing 10% fetal calf serum, 100 μg/ml streptomycin, and 100 U/ml penicillin.
Polystyrene culture dishes (“tissue culture flasks” sold by Becton-Dickinson under the references 3013, 3028, and 3084) were inoculated with the resulting cell suspension and incubation was performed at 37° C. under an atmosphere of moist air with 5% additional CO2. […]
The quantity of para-nitrophenol formed upon hydrolysis of the substrate was determined by measuring the absorbance at 410 nm, which was converted into nanomoles of enzyme using a calibration curve established on the basis of known concentrations of para-nitrophenol.

Chain of intestine type alkaline phosphatase (P09923 20-503 limits assumed): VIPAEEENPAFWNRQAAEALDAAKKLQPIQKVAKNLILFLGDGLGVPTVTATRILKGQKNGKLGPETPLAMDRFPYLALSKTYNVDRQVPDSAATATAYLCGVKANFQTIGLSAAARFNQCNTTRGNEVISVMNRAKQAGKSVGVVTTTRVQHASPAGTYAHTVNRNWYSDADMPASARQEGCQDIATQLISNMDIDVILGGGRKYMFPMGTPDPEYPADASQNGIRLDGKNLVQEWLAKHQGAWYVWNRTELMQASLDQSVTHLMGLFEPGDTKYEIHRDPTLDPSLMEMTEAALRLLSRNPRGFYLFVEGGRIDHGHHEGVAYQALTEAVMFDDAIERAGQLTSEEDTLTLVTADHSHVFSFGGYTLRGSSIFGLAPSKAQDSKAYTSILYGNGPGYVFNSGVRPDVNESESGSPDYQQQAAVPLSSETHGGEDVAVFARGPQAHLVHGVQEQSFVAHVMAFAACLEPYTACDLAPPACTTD

Row | SMILES | IC50 [1] | IC50 [2] | alkaline phosphatase activity, observed in nearly all cases [3] | alkaline phosphatase activity, sometimes as high as [3]
1 | c1ccc([C@H]2CN3CCSC3=N2)cc1 [levamisole] | ~3000 µM | ~1000 µM | – | –
2 | C[C@@H]1C[C@H]2[C@@H]3CCC4=CC(=O)C=C[C@]4(C)[C@@]3(F)[C@@H](O)C[C@]2(C)[C@@]1(O)C(=O)CO [dexamethasone] | – | – | not less than 200 nanomoles of para-nitrophenol/30 min/well | ≤ 700 nanomoles/30 min/well
